Values quoted from earlier work as cited in paper PMC9851200, “Multiparameter phenotypic screening for endogenous TFEB and TFE3 translocation identifies novel chemical series modulating lysosome function” (Autophagy, 2022).

Assays:
Set-up in all cases: method as in original PKIS2 published data
[1] = biological target: T1, kinases (KINOMEscan panel) (Homo sapiens, UniProt P20794); details: Published KINOMEscan; ref original PKIS2 published data; cited from earlier work
T1 sequence (P20794 1-623): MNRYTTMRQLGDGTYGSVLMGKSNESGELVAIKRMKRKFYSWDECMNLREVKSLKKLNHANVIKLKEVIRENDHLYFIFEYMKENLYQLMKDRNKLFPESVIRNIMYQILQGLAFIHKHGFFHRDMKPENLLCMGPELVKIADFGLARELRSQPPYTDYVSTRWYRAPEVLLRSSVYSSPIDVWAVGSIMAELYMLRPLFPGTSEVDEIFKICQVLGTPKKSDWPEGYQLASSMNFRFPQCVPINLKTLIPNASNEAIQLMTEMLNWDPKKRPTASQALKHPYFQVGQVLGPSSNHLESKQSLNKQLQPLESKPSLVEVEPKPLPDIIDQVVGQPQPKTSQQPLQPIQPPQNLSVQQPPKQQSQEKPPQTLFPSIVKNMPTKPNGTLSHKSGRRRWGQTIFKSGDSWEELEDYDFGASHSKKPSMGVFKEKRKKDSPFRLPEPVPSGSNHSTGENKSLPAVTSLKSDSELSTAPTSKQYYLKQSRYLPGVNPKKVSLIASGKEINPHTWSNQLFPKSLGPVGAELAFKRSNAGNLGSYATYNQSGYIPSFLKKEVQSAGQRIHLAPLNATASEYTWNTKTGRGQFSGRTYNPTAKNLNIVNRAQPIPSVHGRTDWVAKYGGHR

[2] = biological target: kinases (KINOMEscan panel) (Homo sapiens, UniProt P48729); details: CSNK1A1; Published KINOMEscan; ref original PKIS2 published data; cited from earlier work
[3] = biological target: kinases (KINOMEscan panel) (Homo sapiens, UniProt Q00532); details: CDKL1; Published KINOMEscan; ref original PKIS2 published data; cited from earlier work
[4] = biological target: T2, kinases (KINOMEscan panel) (Homo sapiens, UniProt Q8N752); details: CSNK1A1L; Published KINOMEscan; ref original PKIS2 published data; cited from earlier work
T2 sequence (Q8N752 1-337): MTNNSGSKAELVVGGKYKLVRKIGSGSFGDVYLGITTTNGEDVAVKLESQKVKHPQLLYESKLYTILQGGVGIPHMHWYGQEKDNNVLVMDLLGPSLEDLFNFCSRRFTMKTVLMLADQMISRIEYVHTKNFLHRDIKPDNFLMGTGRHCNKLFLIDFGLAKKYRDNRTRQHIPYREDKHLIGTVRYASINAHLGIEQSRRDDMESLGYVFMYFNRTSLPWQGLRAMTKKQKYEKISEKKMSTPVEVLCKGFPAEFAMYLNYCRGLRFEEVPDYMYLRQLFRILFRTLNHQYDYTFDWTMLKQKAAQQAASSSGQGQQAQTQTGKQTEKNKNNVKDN

[5] = biological target: T3, kinases (KINOMEscan panel) (Homo sapiens, UniProt Q9UBE8); details: NLK; Published KINOMEscan; ref original PKIS2 published data; cited from earlier work
T3 sequence (Q9UBE8 1-527): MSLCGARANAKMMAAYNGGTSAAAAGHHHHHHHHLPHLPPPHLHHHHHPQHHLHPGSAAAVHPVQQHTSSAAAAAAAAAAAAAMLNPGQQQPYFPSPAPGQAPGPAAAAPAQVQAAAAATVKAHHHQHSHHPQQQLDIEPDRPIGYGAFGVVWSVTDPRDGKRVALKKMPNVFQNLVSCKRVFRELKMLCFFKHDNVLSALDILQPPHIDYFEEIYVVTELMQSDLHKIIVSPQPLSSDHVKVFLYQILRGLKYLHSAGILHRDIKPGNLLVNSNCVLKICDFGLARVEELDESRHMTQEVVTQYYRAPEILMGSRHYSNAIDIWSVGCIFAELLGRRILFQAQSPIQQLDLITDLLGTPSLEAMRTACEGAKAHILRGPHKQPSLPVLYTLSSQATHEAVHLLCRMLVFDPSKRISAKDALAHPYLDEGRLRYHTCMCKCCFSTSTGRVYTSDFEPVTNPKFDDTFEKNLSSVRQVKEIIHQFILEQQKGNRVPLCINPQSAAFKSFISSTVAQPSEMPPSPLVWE

[6] = biological target: kinases (KINOMEscan panel) (Homo sapiens, UniProt Q9UPE1); details: SRPK3; Published KINOMEscan; ref original PKIS2 published data; cited from earlier work
Chain of kinases (KINOMEscan panel) (Homo sapiens, UniProt Q9UPE1) (Q9UPE1 whole entry): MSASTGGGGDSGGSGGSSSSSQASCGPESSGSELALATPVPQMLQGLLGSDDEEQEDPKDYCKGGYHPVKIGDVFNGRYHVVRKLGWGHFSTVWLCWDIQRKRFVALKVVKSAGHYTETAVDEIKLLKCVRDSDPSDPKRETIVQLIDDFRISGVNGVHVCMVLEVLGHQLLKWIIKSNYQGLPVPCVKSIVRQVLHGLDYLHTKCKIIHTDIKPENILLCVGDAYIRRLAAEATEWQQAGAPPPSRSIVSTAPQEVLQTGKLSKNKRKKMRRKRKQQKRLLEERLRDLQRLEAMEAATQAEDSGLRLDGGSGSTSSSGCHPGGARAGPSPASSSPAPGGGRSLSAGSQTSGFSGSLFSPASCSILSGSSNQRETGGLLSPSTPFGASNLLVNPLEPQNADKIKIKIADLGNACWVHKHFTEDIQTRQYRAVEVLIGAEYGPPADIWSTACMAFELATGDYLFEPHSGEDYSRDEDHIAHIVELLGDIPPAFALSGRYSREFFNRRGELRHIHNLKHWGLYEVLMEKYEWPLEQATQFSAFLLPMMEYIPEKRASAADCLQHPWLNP

Chain of kinases (KINOMEscan panel) (Homo sapiens, UniProt P48729) (P48729 whole entry): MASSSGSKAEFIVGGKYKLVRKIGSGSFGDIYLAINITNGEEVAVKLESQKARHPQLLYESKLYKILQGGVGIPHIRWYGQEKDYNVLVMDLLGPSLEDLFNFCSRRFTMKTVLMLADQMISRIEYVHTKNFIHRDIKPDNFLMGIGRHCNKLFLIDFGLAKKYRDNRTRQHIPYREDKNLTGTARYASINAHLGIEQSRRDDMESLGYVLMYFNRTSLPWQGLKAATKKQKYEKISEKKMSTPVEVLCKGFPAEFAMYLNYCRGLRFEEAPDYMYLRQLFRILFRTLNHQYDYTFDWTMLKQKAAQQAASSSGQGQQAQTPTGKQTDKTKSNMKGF
Chain of kinases (KINOMEscan panel) (Homo sapiens, UniProt Q00532) (Q00532 whole entry): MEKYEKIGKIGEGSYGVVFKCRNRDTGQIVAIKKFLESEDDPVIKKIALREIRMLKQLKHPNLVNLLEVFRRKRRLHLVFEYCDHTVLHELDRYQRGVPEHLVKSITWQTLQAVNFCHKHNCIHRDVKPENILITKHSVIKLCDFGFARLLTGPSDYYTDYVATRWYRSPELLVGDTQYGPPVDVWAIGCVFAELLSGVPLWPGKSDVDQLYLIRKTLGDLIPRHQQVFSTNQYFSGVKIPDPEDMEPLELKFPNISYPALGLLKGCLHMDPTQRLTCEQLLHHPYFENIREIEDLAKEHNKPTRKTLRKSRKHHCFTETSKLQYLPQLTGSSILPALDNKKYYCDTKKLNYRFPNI

SMILES: Cc1cccc(-c2nc(Nc3ccncc3)c3ccccc3n2)n1 [NK215]
- KINOMEscan MAK [1]: 0
- KINOMEscan CSNK1A1 [2]: 46
- KINOMEscan CDKL1 [3]: 47
- KINOMEscan CSNK1A1L [4]: 10
- KINOMEscan NLK [5]: 47
- KINOMEscan SRPK3 [6]: 15
